Experiments:
[1] = Antagonist activity P2X1 receptor in Apyrase pre-treated human platelets assessed as inhibition of collagen-induced platelet aggregation pre-incubated for 30 mins before collagen stimulation by aggregometry
[2] = Antagonist activity P2X1 receptor in Apyrase pre-treated human platelets assessed as inhibition of TRAP6-induced platelet aggregation pre-incubated for 30 mins before TRAP6 stimulation by aggregometry
[3] = Antagonist activity P2X1 receptor in human platelets assessed as inhibition of ADP-induced platelet aggregation pre-incubated for 30 mins before ADP stimulation by aggregometry

| IC50 [1] | IC50 [2] | IC50 [3] | SMILES |
| --- | --- | --- | --- |
| 1.14 µM | 4.8 µM | 5.47 µM | O=C(Nc1cc(C(F)(F)F)cc(C(F)(F)F)c1)c1ccc(Cl)cc1O |
| 3.13 µM | > 10 µM | > 20 µM | O=S(=O)(Nc1cc(C(F)(F)F)cc(C(F)(F)F)c1)c1cc(Cl)ccc1O |
| 2.1 µM | 5.57 µM |  | O=C(Nc1cc(C(F)(F)F)cc(C(F)(F)F)c1)c1ccccc1 [N-(3,5-Bis(Trifluoromethyl)Phenyl)Benzamide] |

The next lines start with the compound.

| SMILES | IC50 [1] | IC50 [2] | IC50 [3] |
| --- | --- | --- | --- |
| O=C(Nc1cc(Cl)cc(Cl)c1)c1cc(Cl)ccc1O | 3.03 µM | > 10 µM | > 20 µM |
| O=C(Nc1cc(F)cc(F)c1)c1cc(Cl)ccc1O |  | > 10 µM | > 20 µM |
| O=C(Nc1cc(C(F)(F)F)cc(C(F)(F)F)c1)c1cc(Cl)ccc1O [TCMDC-125465] | 0.57 µM | 3.64 µM | 4.73 µM |

Source: BindingDB's records for doi:10.1021/acs.jmedchem.0c00435 (University of Bonn, 2020)
